According to the NIST ThermoML archive (doi:10.1021/acs.jced.7b00221):
± gives the expanded uncertainty stated by the source.

Conditions: 100 kPa, Liquid; for mass density: Vibrating tube method; for viscosity: Cone and plate viscometry

Row | Compound | mass density (283.15 K) [kg/m3] | mass density (288.15 K) [kg/m3] | mass density (293.15 K) [kg/m3] | mass density (295.15 K) [kg/m3] | mass density (298.15 K) [kg/m3] | mass density (303.15 K) [kg/m3] | mass density (308.15 K) [kg/m3] | mass density (313.15 K) [kg/m3] | mass density (318.15 K) [kg/m3] | mass density (323.15 K) [kg/m3] | mass density (328.15 K) [kg/m3] | mass density (333.15 K) [kg/m3] | mass density (338.15 K) [kg/m3] | mass density (343.15 K) [kg/m3] | mass density (348.15 K) [kg/m3] | mass density (353.15 K) [kg/m3] | viscosity (278.15 K) [mPa·s] | viscosity (283.15 K) [mPa·s] | viscosity (288.15 K) [mPa·s] | viscosity (293.15 K) [mPa·s] | further results
1 | CCCCCC[n+]1ccn(C)c1.O=S(=O)([N-]S(=O)(=O)C(F)(F)F)C(F)(F)F | 1385.6 ± 4 | 1381 ± 4 | 1376.5 ± 4 | 1374.6 ± 4 | 1371.9 ± 4 | 1367.3 ± 4 | 1362.8 ± 4 | 1358.3 ± 4 | 1353.7 ± 4 | 1349.2 ± 4 | 1344.7 ± 4 | 1340.3 ± 4 | 1335.8 ± 4 | 1331.4 ± 4 | 1326.9 ± 4 | 1322.5 ± 4 |  |  |  |  | 
2 | CCCCCCn1cc[n+](C)c1C.O=S(=O)([N-]S(=O)(=O)C(F)(F)F)C(F)(F)F | 1373 ± 12 | 1368.4 ± 12 | 1363.9 ± 12 | 1362.1 ± 12 | 1359.5 ± 12 | 1355.1 ± 12 | 1350.8 ± 12 | 1346.4 ± 12 | 1342 ± 12 | 1337.6 ± 12 | 1333.2 ± 12 | 1328.9 ± 12 | 1324.5 ± 12 | 1320.2 ± 12 | 1315.8 ± 12 | 1311.5 ± 12 |  |  |  |  | 
3 | CCCC[n+]1ccn(C)c1.O=S(=O)([N-]S(=O)(=O)C(F)(F)F)C(F)(F)F | 1451.1 ± 4 | 1446.3 ± 4 | 1441.5 ± 4 | 1439.6 ± 4 | 1436.8 ± 4 | 1432 ± 4 | 1427.3 ± 4 | 1422.7 ± 4 | 1418 ± 4 | 1413.3 ± 4 | 1408.7 ± 4 | 1404.1 ± 4 | 1399.4 ± 4 | 1394.8 ± 4 | 1390.2 ± 4 | 1385.7 ± 4 | 138 ± 17 | 104 ± 13 | 80 ± 10 | 63 ± 8 | viscosity (298.15 K): 51 ± 6 mPa·s
4 | CC[P+](CC)(CC)COCCOC.O=S(=O)([N-]S(=O)(=O)C(F)(F)F)C(F)(F)F |  |  |  |  |  |  |  |  |  |  |  |  |  |  |  |  | 84 ± 10 | 65 ± 8 | 51 ± 6 |  | 
5 | CCn1cc[n+](C)c1.O=S(=O)([N-]S(=O)(=O)C(F)(F)F)C(F)(F)F | 1534.1 ± 4.1 | 1529 ± 4.1 | 1523.9 ± 4.1 | 1521.9 ± 4.1 | 1518.9 ± 4 | 1513.9 ± 4 | 1508.9 ± 4 | 1503.9 ± 4 | 1499 ± 4 | 1494.1 ± 4 | 1489.1 ± 4 | 1484.2 ± 4 | 1479.3 ± 4 | 1474.4 ± 4 | 1469.6 ± 4 | 1464.7 ± 4 | 80 ± 10 | 63 ± 8 | 50 ± 6 |  | 
6 | CCCCCCn1cc[n+](C)c1.N#Cc1ccc[n-]1 [1-hexyl-3-methylimidazolium 2-cyanopyrrolide] |  |  |  |  |  |  |  |  |  |  |  |  |  |  |  |  | 1540 ± 210 | 902 ± 120 | 553 ± 72 | 355 ± 45 | viscosity (298.15 K): 239 ± 30 mPa·s; viscosity (303.15 K): 167 ± 21 mPa·s; viscosity (308.15 K): 122 ± 15 mPa·s; viscosity (313.15 K): 91 ± 11 mPa·s; viscosity (318.15 K): 70 ± 9 mPa·s; viscosity (323.15 K): 55 ± 7 mPa·s
